Patent US10081624B2, “Heterocyclic compound” (Takeda Pharmaceutical Company Limited, priority 2014, dated 2018)

What was measured:
HDAC6 enzyme = biological target: T1, HDAC6 enzyme (Homo sapiens, UniProt Q9UBN7); experiment: HDAC6 enzyme inhibitory assay (HDAC-Glo I/II Assay kit); type: biochemical; conditions: 1 μM test compound; read-out: HDAC6 inhibitory rate (%) (1 μM)
T1 construct: prepared by transducing full length HDAC1 and HDAC6 genes into Sf-9 insect cells; GST; purchased SignalChem; host or cells: Sf-9 insect cells
T1 sequence (Q9UBN7 1-1215): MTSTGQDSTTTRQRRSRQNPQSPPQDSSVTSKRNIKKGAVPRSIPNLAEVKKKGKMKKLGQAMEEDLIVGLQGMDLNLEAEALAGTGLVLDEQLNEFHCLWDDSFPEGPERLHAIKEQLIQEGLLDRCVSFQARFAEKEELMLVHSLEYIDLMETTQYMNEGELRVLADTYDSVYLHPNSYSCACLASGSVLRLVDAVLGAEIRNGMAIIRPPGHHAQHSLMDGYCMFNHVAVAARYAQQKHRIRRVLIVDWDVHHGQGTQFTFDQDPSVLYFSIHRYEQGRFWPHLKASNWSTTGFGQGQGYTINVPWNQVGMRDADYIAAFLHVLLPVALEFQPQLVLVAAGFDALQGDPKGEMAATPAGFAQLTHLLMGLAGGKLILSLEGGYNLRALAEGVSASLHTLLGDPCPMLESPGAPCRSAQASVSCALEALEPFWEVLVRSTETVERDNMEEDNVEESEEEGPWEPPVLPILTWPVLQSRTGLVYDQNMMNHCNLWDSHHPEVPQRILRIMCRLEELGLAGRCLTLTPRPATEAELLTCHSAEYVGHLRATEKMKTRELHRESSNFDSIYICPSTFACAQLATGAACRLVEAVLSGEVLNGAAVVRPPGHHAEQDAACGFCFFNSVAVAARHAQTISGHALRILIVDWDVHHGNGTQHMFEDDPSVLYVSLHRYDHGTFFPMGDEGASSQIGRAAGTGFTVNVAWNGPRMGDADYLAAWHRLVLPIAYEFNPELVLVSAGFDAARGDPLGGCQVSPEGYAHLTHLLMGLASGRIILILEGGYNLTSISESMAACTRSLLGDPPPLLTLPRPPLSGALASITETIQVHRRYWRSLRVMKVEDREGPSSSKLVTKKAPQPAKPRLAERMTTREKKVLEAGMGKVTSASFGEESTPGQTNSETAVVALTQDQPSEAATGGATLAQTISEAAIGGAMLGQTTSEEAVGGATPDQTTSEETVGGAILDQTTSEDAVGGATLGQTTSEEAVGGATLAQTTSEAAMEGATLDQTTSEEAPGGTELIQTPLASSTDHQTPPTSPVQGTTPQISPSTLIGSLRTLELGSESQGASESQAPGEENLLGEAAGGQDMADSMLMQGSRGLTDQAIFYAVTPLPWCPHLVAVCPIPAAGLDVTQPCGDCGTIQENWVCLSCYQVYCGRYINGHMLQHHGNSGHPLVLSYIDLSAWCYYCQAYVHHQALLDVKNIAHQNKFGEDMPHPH
Procedure, shortened: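 Luminescent HDAC-Glo I/II read-out after 20 min room-temperature reaction with substrate-developer, following a 60 min room-temperature enzyme–compound preincubation. Enzymes: full-length HDAC1 or HDAC6 from Sf-9 cells, GST-purified; buffer pH 7.5 Tris with NaCl, glutathione, 0.01% Tween-20. No-enzyme wells defined 100% inhibition.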

HDAC1 enzyme = biological target: T2, HDAC1 enzyme (Homo sapiens, UniProt Q13547); experiment: HDAC1 enzyme inhibitory assay (HDAC-Glo I/II Assay kit); type: biochemical; conditions: 1 μM test compound; read-out: HDAC1 inhibitory rate (%) (1 μM)
T2 construct: prepared by transducing full length HDAC1 and HDAC6 genes into Sf-9 insect cells; GST; purchased SignalChem; host or cells: Sf-9 insect cells
Protocol: HDAC1 enzyme and HDAC6 enzyme each prepared by transducing full length HDAC1 and HDAC6 genes into Sf-9 insect cells and purifying by GST affinity column were purchased from SignalChem. Using these enzymes, HDAC1 and/or HDAC6 enzyme inhibitory activities of the compound of the present invention were evaluated. Enzymes were used after preserved at −70° C. HDAC1 or HDAC6 enzyme inhibitory activity of the compound of the present invention was measured using HDAC-Glo™ I/II Assay kit (Promega) according to the following experimental method. The test compound diluted with assay buffer (24 mM Tris-HCl (pH 7.5), 1 mM MgCl2, 0.35 mM KCl, 135 mM NaCl, 0.6 mM Glutathione, 0.01% Tween-20) was added to a 384-well plate by each 2 μL. Then, HDAC1 or HDAC6 enzyme solution diluted with assay buffer was added thereto by each 4 μL, and the plate was incubated at room temperature for 60 min. After incubated, HDAC substrate-Developer solution prepared according to Promega protocol attached to the assay kit was added to the 384-well plate by each 2 μL, and the enzyme reaction was started. After reacting at room temperature for 20 min, luminescence level was measured using plate reader Envision (PerkinElmer). The inhibitory activity of each compound was calculated as a relative activity value when luminescence level in wells without enzyme is considered as 100% inhibition.

T2 sequence (Q13547 whole entry): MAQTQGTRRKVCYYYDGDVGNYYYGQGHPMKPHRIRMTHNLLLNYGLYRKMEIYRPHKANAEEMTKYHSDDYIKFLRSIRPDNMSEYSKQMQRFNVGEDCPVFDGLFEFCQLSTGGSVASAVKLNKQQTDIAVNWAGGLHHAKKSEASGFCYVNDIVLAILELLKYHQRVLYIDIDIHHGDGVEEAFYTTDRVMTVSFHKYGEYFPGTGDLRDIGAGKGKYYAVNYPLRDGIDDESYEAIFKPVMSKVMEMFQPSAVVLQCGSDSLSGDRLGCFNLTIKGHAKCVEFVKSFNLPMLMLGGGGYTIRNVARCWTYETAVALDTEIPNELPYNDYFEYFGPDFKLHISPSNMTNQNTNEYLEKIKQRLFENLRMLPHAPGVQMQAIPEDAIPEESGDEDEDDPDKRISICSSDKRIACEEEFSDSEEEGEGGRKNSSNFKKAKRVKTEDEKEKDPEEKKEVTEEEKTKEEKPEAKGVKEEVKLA

inhibition at 1 µM (HDAC6 enzyme) [%]	inhibition at 1 µM (HDAC1 enzyme) [%]	SMILES
99	21	Cc1ccc(C(=O)N2CCOCC2CNC(=O)c2ccc(-c3noc(C(F)(F)F)n3)cc2)cc1 (centres unmarked) [Example 11, N-((4-(4-methylbenzoyl)morpholin-3-yl)methyl)-4-(5-(trifluoromethyl)-1,2,4-oxadiazol-3-yl)benzamide]
98	7	O=C(NCC1COCCN1C(=O)c1ccccn1)c1ccc(-c2noc(C(F)(F)F)n2)cc1 (centres unmarked) [Example 12, N-((4-(pyridin-2-ylcarbonyl)morpholin-3-yl)methyl)-4-(5-(trifluoromethyl)-1,2,4-oxadiazol-3-yl)benzamide]
97	13	O=C(NCC1COCCN1C(=O)c1cccnc1)c1ccc(-c2noc(C(F)(F)F)n2)cc1 (centres unmarked) [Example 13, N-((4-(pyridin-3-ylcarbonyl)morpholin-3-yl)methyl)-4-(5-(trifluoromethyl)-1,2,4-oxadiazol-3-yl)benzamide]
98	20	O=C(NCC1COCCN1C(=O)c1ccncc1)c1ccc(-c2noc(C(F)(F)F)n2)cc1 (centres unmarked) [Example 14, N-((4-isonicotinoylmorpholin-3-yl)methyl)-4-(5-(trifluoromethyl)-1,2,4-oxadiazol-3-yl)benzamide]
98	20	O=C(NCC1COCCN1C(=O)c1cccs1)c1ccc(-c2noc(C(F)(F)F)n2)cc1 (centres unmarked) [Example 15, N-((4-(2-thienylcarbonyl)morpholin-3-yl)methyl)-4-(5-(trifluoromethyl)-1,2,4-oxadiazol-3-yl)benzamide]
97	28	O=C(NCC1COCCN1C(=O)Cc1cccs1)c1ccc(-c2noc(C(F)(F)F)n2)cc1 (centres unmarked) [Example 21, N-((4-(2-thienylacetyl)morpholin-3-yl)methyl)-4-(5-(trifluoromethyl)-1,2,4-oxadiazol-3-yl)benzamide]
93	8	O=C(NCC1COCCN1C(=O)C1CC1)c1ccc(-c2noc(C(F)(F)F)n2)cc1 (centres unmarked) [Example 24, N-((4-(cyclopropylcarbonyl)morpholin-3-yl)methyl)-4-(5-(trifluoromethyl)-1,2,4-oxadiazol-3-yl)benzamide]
102	20	O=C(NCC1COCCN1C(=O)C1CCCCC1)c1ccc(-c2noc(C(F)(F)F)n2)cc1 (centres unmarked) [Example 25, N-((4-(cyclohexylcarbonyl)morpholin-3-yl)methyl)-4-(5-(trifluoromethyl)-1,2,4-oxadiazol-3-yl)benzamide]
95	10	O=C(NCC1COCCN1C(=O)C1CCOCC1)c1ccc(-c2noc(C(F)(F)F)n2)cc1 (centres unmarked) [Example 26, N-((4-(tetrahydro-2H-pyran-4-ylcarbonyl)morpholin-3-yl)methyl)-4-(5-(trifluoromethyl)-1,2,4-oxadiazol-3-yl)benzamide]

More lines, now with the values behind:

SMILES	inhibition at 1 µM (HDAC6 enzyme) [%]	inhibition at 1 µM (HDAC1 enzyme) [%]
O=C(NCC1COCCN1C(=O)c1cccc(Cl)c1)c1ccc(-c2noc(C(F)(F)F)n2)cc1 (centres unmarked) [Example 7, N-((4-(3-chlorobenzoyl)morpholin-3-yl)methyl)-4-(5-(trifluoromethyl)-1,2,4-oxadiazol-3-yl)benzamide]	101	24
O=C(NCC1COCCN1C(=O)c1ccc(Cl)cc1)c1ccc(-c2noc(C(F)(F)F)n2)cc1 (centres unmarked) [Example 8]	97	33
Cc1ccccc1C(=O)N1CCOCC1CNC(=O)c1ccc(-c2noc(C(F)(F)F)n2)cc1 (centres unmarked) [Example 9, N-((4-(2-methylbenzoyl)morpholin-3-yl)methyl)-4-(5-(trifluoromethyl)-1,2,4-oxadiazol-3-yl)benzamide]	99	21
Cc1cccc(C(=O)N2CCOCC2CNC(=O)c2ccc(-c3noc(C(F)(F)F)n3)cc2)c1 (centres unmarked) [Example 10, N-((4-(3-methylbenzoyl)morpholin-3-yl)methyl)-4-(5-(trifluoromethyl)-1,2,4-oxadiazol-3-yl)benzamide]	104	18
Cn1nc(C(=O)N2CCOCC2CNC(=O)c2ccc(-c3noc(C(F)(F)F)n3)cc2)c2ccccc21 (centres unmarked) [Example 18, N-((4-((1-methyl-1H-indazol-3-yl)carbonyl)morpholin-3-yl)methyl)-4-(5-(trifluoromethyl)-1,2,4-oxadiazol-3-yl)benzamide]	98	9
O=C(NCC1COCCN1C(=O)c1cc2ccccc2o1)c1ccc(-c2noc(C(F)(F)F)n2)cc1 (centres unmarked) [Example 19, N-((4-(1-benzofuran-2-ylcarbonyl)morpholin-3-yl)methyl)-4-(5-(trifluoromethyl)-1,2,4-oxadiazol-3-yl)benzamide]	98	24
O=C(NCC1COCCN1C(=O)c1ccc2nccn2c1)c1ccc(-c2noc(C(F)(F)F)n2)cc1 (centres unmarked) [Example 20, N-((4-(imidazo[1,2-a]pyridin-6-ylcarbonyl)morpholin-3-yl)methyl)-4-(5-(trifluoromethyl)-1,2,4-oxadiazol-3-yl)benzamide]	99	20
O=C(NCC1COCCN1C(=O)CCc1ccccc1)c1ccc(-c2noc(C(F)(F)F)n2)cc1 (centres unmarked) [Example 22, N-((4-(3-phenylpropanoyl)morpholin-3-yl)methyl)-4-(5-(trifluoromethyl)-1,2,4-oxadiazol-3-yl)benzamide]	100	23
O=C(NCC1COCCN1C(=O)c1ccc(-c2ccccc2)cc1)c1ccc(-c2noc(C(F)(F)F)n2)cc1 (centres unmarked) [Example 23, N-((4-(biphenyl-4-ylcarbonyl)morpholin-3-yl)methyl)-4-(5-(trifluoromethyl)-1,2,4-oxadiazol-3-yl)benzamide]	95	36
O=C(NCC1COCCN1C(=O)c1cccc(C(F)(F)F)c1)c1ccc(-c2noc(C(F)(F)F)n2)cc1 (centres unmarked) [Example 27, N-((4-(3-(trifluoromethyl)benzoyl)morpholin-3-yl)methyl)-4-(5-(trifluoromethyl)-1,2,4-oxadiazol-3-yl)benzamide]	99	14
N#Cc1cccc(C(=O)N2CCOCC2CNC(=O)c2ccc(-c3noc(C(F)(F)F)n3)cc2)c1 (centres unmarked) [Example 28, N-((4-(3-cyanobenzoyl)morpholin-3-yl)methyl)-4-(5-(trifluoromethyl)-1,2,4-oxadiazol-3-yl)benzamide]	98	14
COc1cccc(C(=O)N2CCOCC2CNC(=O)c2ccc(-c3noc(C(F)(F)F)n3)cc2)c1 (centres unmarked) [Example 29, N-((4-(3-methoxybenzoyl)morpholin-3-yl)methyl)-4-(5-(trifluoromethyl)-1,2,4-oxadiazol-3-yl)benzamide]	99	19
O=C(NCC1COCCN1C(=O)c1cc(Cl)cc(Cl)c1)c1ccc(-c2noc(C(F)(F)F)n2)cc1 (centres unmarked) [Example 30, N-((4-(3,5-dichlorobenzoyl)morpholin-3-yl)methyl)-4-(5-(trifluoromethyl)-1,2,4-oxadiazol-3-yl)benzamide]	98	24
